Experimental data as given in patent publication US7790727B2, “Benzenesulfonanilide compounds suitable for treating disorders that respond to modulation of the serotonin 5-HT6 receptor” (Abbott GmbH & Co. KG, priority 2007, dated 2010).
Structures can show the parent of a compound that is named as a salt. Where two headings read alike, the source gives them in different places.

How the values were obtained:
h-5-HT6 receptor = molecular target: T1, h-5-HT6 receptor (Homo sapiens, UniProt P50406); test: 5-HT6 receptor binding assay (displacement of [3H]-LSD)
T1 construct: expressed in transfected cells
Experimental: Displacement of radioligands binding to the following cloned human receptors
(§1) 1. Preparation of Membranes by Ultrasonic Treatment and Differential Centrifugation
Cells from stable clonal cell lines expressing the corresponding receptor (5-HT6, α1-adrenergic, dopamine D2 or histamine H1 receptors) were washed with PBS (w/o Ca^++, Mg^++) and harvested in PBS with 0.02% EDTA. The cells were collected by centrifugation at 500 g for 10 min. at 4° C., washed with PBS and centrifuged (500 g, 10 min. 4° C.). The pellets were stored at −80° C. until use. F or membrane preparation, the thawed cell pellet was resuspended in ice-cold sucrose buffer (0.25 M sucrose, 10 mM Hepes (pH 7.4), 1 mM Phenylmethylsulfonyl fluoride (PMSF) in DMSO, 5 μg/ml Pepstatin-A, 3 mM EDTA, 0.025% Bacitracin) and homogenized with a Branson Sonifier W-250 (Settings: Timer 4; Output Control 3; Duty Cycle constant; 2 to 3 cycles). Cell disruption was checked with the aid of a microscope. Remaining unbroken cells were pelleted at 1.000 g for 10 min. at 4° C. The sucrose buffer supernatant was then centrifuged at 60.000 g for 1 h at 4° C. (Beckman Ultrazentrifuge XL 80). The pellet was resuspended in 30 ml ice-cold Tris buffer (20 mM TRIS (pH 7.4), 5 μg/ml Pepstatin A, 0.1 mM PMSF, 3 mM EDTA) by pipetting through a 10 ml serological pipet and centrifuged for 1 h at 4° C. at 60.000 g. A final resuspension was performed in a small volume of ice-cold Tris buffer (see above) by pressing through a serological pipet followed by ultrasonic treatment with a Branson Sonifier W-250 (Settings: Timer 1; Output Control 3; Duty Cycle constant; 1 cycle). Protein concentration was determined (BCA-Kit; Pierce) and aliquots stored at −80° C. or in liquid nitrogen for long-term storage.
(§2) 2. Receptor Binding Experiments
All receptor binding experiments were carried out in the corresponding assay buffer in a total volume of 200 μl in the presence of various concentrations of test compound (10^−5 M to 10^−9 M, tenfold serial dilution, duplicate determinations). The assays were terminated by filtration on polyethylenimine (PEI 0.1% or 0.3%) presoaked Packard Unifilter Plates (GF/C or GF/B) with a Tomtec Machill U 96 well-plate harvester. After the plates had been dried for 2 h at 55° C. in a drying chamber scin tillation cocktail (BetaPlate Scint; PerkinElmer) was added. Radioactivity was measured in a Microbeta Trilux two hours after the addition of the scintillation mixture. Data derived from liquid scintillation counting were analysed by iterative non-linear regression analysis with the use of the Statistical Analysis System (SAS): a program similar to “LIGAND” as described by Munson and Rodbard (Analytical Biochemistry 107, 220-239 (1980).
a) 5-HT6 Receptor Binding Assay
HEK293 cells stably expressing the h-5-HT6 receptor (NCBI Reference Sequence XM 001435) were cultured in RPMI1640 medium supplemented with 25 mM HEPES, 10% fetal calf serum and 1-2 mM glutamine. The membrane preparation was performed as described in section 1. […] Non-specific binding was defined with 1 μM methiothepin. The binding reaction was carried out for 3.5 h at room temperature. During the incubation, the plates were shaken on a plate shaker at 100 rpm and terminated by filtration on Packard Unifilter GF/C (0.1% PEI) plates, followed by 2 wash cycles with ice-cold 50 mM Tris-HCl, 5 mM CaCl2.
Data derived from liquid scintillation counting were analyzed by iterative non-linear regression analysis with the use of the Statistical Analysis System (SAS): a program similar to “LIGAND” as described by Munson and Rodbard (Anal. Biochem. 1980, 107, 220-239). Fitting was performed according to formulae described by Feldman (Anal. Biochem. 1972, 48, 317-338). IC50, nH and Ki values were expressed as geometrical mean.

dopamine D2 receptor = molecular target: T2, dopamine D2 receptor (Homo sapiens, UniProt P14416); test: Dopamine D2 receptor binding assay (displacement of [125I]-iodospiperone); details: dopamine D2 receptor membranes, HEK293; read-out: KD of radioligand (saturation binding experiments)
T2 construct: expressed in transfected cells
Experimental: as §1
The pellets were stored at −80° C. until use. […] (Beckman Ultrazentrifuge XL 80).
as §2
a) Dopamine D2 Receptor Binding Assay
Non-specific binding was defined with 1 μM haloperidol.

T1 sequence (P50406 whole entry): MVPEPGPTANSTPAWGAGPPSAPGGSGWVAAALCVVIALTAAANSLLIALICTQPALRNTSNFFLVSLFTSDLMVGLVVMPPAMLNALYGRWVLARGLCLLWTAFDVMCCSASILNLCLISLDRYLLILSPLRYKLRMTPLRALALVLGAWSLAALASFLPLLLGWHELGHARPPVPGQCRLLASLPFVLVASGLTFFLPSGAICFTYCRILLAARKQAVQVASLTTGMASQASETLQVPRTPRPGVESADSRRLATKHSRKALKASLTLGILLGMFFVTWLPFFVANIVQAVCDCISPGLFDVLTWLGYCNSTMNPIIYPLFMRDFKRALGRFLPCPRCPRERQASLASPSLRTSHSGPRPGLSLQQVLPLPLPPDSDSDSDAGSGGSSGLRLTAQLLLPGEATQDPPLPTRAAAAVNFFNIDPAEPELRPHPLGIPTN
T2 sequence (P14416 whole entry): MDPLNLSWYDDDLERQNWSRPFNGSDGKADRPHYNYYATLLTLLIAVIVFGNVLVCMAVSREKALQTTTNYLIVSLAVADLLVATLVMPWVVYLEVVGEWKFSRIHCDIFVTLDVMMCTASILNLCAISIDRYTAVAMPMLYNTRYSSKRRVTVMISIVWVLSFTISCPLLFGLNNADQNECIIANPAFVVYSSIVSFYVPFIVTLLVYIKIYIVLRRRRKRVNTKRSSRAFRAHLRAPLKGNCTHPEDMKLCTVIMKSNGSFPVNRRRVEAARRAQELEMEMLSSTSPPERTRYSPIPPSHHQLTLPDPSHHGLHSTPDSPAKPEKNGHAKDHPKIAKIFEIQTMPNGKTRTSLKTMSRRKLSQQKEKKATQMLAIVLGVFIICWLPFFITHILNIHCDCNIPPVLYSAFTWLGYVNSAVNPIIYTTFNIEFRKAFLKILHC

With O=S(=O)(Nc1cccc(N2CCNCC2)c1)c1ccccc1OC(F)F [Example 30, 2-Difluoromethoxy-N-(3-piperazin-1-yl-phenyl)-benzenesulfonamide Trifluoroacetate] the Ki (h-5-HT6 receptor) was less than 10 nM.

Compound COc1ccc(S(=O)(=O)Nc2cccc(N3CCNCC3)c2)cc1OC(F)F [Example 31, 3-Difluoromethoxy-4-methoxy-N-(3-piperazin-1-yl-phenyl)-benzenesulfonamide Trifluoroacetate] has a Ki (h-5-HT6 receptor; membranes of HEK293 cells expressing h-5-HT6 receptor, 1 nM [3H]-LSD, read-out: Ki(5HT6)) of less than 50 nM.

For iodospiperone [[^125I]-iodospiperone], the Kd (dopamine D2 receptor) was 0.22 nM.
